Reference: paper PMC5344255, “Design, Synthesis and Biochemical Evaluation of Novel Selective Estrogen Receptor Ligand Conjugates Incorporating an Endoxifen-Combretastatin Hybrid Scaffold” (Biomedicines, 2016)
“And” between values parts separate entries of the source, which are not always exact repeats. Equal entries are not always repeated. Marks after values point to notes of the source that are not given here.

What was measured:
[1] = system: MDA-MB-231 human breast cancer cells; test: Lactate dehydrogenase (LDH) cytotoxicity assay in MDA-MB-231; assay type: cell-based; conditions: % cell lysis at 10 μM
Procedure, shortened: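 Cells seeded at 1 × 10^4 per well and grown 24 h, then dosed with compounds over 1 nM–50 μM. Cell lysis quantified as released cytoplasmic LDH using the CytoTox 96 nonradioactive cytotoxicity assay.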

[2] = system: CCRF-CEM; test: NCI 60 cell line screen; assay type: cell-based, human; conditions: CCRF-CEM (Leukemia)
[3] = system: SR; test: NCI 60 cell line screen; assay type: cell-based, human; conditions: SR (Leukemia)
[4] = system: OVCAR-4; test: NCI 60 cell line screen; assay type: cell-based, human; conditions: OVCAR-4 (Ovarian Cancer); one-dose 10 µM
[5] = system: NCI/ADR-RES; test: NCI 60 cell line screen; assay type: cell-based, human; conditions: NCI/ADR-RES (Ovarian Cancer); one-dose 10 µM
[6] = system: SW-620; test: NCI 60 cell line screen; assay type: cell-based, human; conditions: SW-620 (Colon Cancer)
[7] = system: NCI-H552; test: NCI 60 cell line screen; assay type: cell-based, human; conditions: NCI-H552 (Non-Small Cell Lung Cancer)
[8] = system: SF295; test: NCI 60 cell line screen; assay type: cell-based, human; conditions: SF295 (CNS Cancer)
[9] = system: Ishikawa cell line of human endometrial adenocarcinoma cells; test: Ishikawa assay, estrogen stimulation of alkaline phosphatase activity; assay type: cell-based
Procedure: The Ishikawa assay is used to measure estrogen stimulation of alkaline phosphatase enzyme activity (AlkP) by the Ishikawa cell line of human endometrial adenocarcinoma cells. The Ishikawa assay provides a measure of the agonist activity of a compound. […] The assay was carried out following the method of Littlefield et al.. The batch of Ishikawa cells were obtained as a gift from Professor R. Hochberg—who developed the alkaline phosphatase assay in Yale University, CT, USA.
The Ishikawa assay is used to measure estrogen stimulation of alkaline phosphatase enzyme activity (AlkP) by the Ishikawa cell line of human endometrial adenocarcinoma cells. […] The conjugate was dosed in duplicate.

[10] = system: UO-31; test: NCI 60 cell line screen; assay type: cell-based, human; conditions: UO-31 (Renal Cancer); one-dose 10 µM
[11] = system: NCI-H332M; test: NCI 60 cell line screen; assay type: cell-based, human; conditions: NCI-H332M (Non-Small Cell Lung Cancer)
[12] = system: PC-3; test: NCI 60 cell line screen; assay type: cell-based, human; conditions: PC-3 (Prostate cancer)
[13] = system: U251; test: NCI 60 cell line screen; assay type: cell-based, human; conditions: U251 (CNS Cancer)
[14] = system: MDA-MB-231 human breast cancer cells; test: MTT assay for antiproliferative effects in MDA-MB-231; assay type: cell-based; conditions: MDA-MB-231, MTT assay
[15] = system: MOLT-4; test: NCI 60 cell line screen; assay type: cell-based, human; conditions: MOLT-4 (Leukemia)
[16] = system: A549/ATCC; test: NCI 60 cell line screen; assay type: cell-based, human; conditions: A549/ATCC (Non-Small Cell Lung Cancer)
[17] = system: 786-0; test: NCI 60 cell line screen; assay type: cell-based, human; conditions: 786-0 (Renal Cancer); one-dose 10 µM
[18] = system: HCT-15; test: NCI 60 cell line screen; assay type: cell-based, human; conditions: HCT-15 (Colon Cancer)
[19] = system: IGROV1; test: NCI 60 cell line screen; assay type: cell-based, human; conditions: IGROV1 (Ovarian Cancer); one-dose 10 µM
[20] = system: HOP-92; test: NCI 60 cell line screen; assay type: cell-based, human; conditions: HOP-92 (Non-Small Cell Lung Cancer)
[21] = system: OVCAR-5; test: NCI 60 cell line screen; assay type: cell-based, human; conditions: OVCAR-5 (Ovarian Cancer); one-dose 10 µM
[22] = system: MALME-3M; test: NCI 60 cell line screen; assay type: cell-based, human; conditions: MALME-3M (Melanoma); one-dose 10 µM
[23] = system: BT-549; test: NCI 60 cell line screen; assay type: cell-based, human; conditions: BT-549 (Breast Cancer); one-dose 10 µM
[24] = system: MCF-7; test: NCI 60 cell line screen; assay type: cell-based; conditions: Homo sapiens
[25] = system: SK-MEL-5; test: NCI 60 cell line screen; assay type: cell-based

With `CCC(=C(c1ccc(O)cc1)c1ccc(OCCN(C)C(=O)/C(=C/c2ccc(OC)c(O)c2)c2cc(OC)c(OC)c(OC)c2)cc1)c1ccc(O)cc1` (mixture of isomers) [Compound 28, (E)-N-(2-{4-[(E/Z)-1,2-Bis-(4-hydroxyphenyl)but-1-enyl]-phenoxy}ethyl)-3-(3-hydroxy-4-methoxyphenyl)-N-methyl-2-(3,4,5-trimethoxyphenyl)acrylamide] the “% Cell Death at 10 μM” value [1] was 15%, the “GI% (10^−5 M)” value ([2]; one-dose 10 µM) was 72.48% and the GI50 ([2]; Homo sapiens, five-dose screen) was 1770 nM. The GI50 ([3]; Homo sapiens, five-dose screen) was 2350 nM, the “GI% (10^−5 M)” value ([3]; one-dose 10 µM) was 69.03% and the “GI% (10^−5 M)” value [4] was 2.59%. For the same molecule, the “GI% (10^−5 M)” value [5] was 6.02%, the GI50 ([6]; Homo sapiens, five-dose screen) was 1210 nM and the “GI% (10^−5 M)” value ([6]; one-dose 10 µM) was 81.32%. For the same molecule, the GI50 ([7]; Homo sapiens, 60 cell, five-dose screen) was 1390 nM, the “GI% (10^−5 M)” value ([7]; one-dose 10 µM) was 100 ^d,h % and the GI50 ([8]; Homo sapiens, SF-295, five-dose screen) was 1740 nM. For the same molecule, the “GI% (10^−5 M)” value ([8]; one-dose 10 µM) was 73.4%, the “estrogenic activity (alkaline phosphatase stimulation)” value ([9]; compound dosed individually) was “does not display estrogenic stimulation in the cell line” and the “estrogen stimulation (alkaline phosphatase) in mixture with estradiol” value ([9]; dosed with 1 nM estradiol spike) was “a reduction in estrogenic stimulation at low concentrations and a more pronounced reduction in estrogen stimulation over the range of concentrations when compared with the Tamoxifen mixture”. For the same molecule, the “GI% (10^−5 M)” value [10] was 2.66%, the GI50 ([11]; Homo sapiens, five-dose screen) was 2020 nM and the “GI% (10^−5 M)” value ([11]; one-dose 10 µM) was 81.7%. The GI50 ([12]; Homo sapiens, five-dose screen) was 1730 nM, the “GI% (10^−5 M)” value ([12]; one-dose 10 µM) was 86.32% and the GI50 ([13]; Homo sapiens, U-251, five-dose screen) was 1740 nM. The “GI% (10^−5 M)” value ([13]; one-dose 10 µM) was 93% and 93.37%, the IC50 [14] was 2480 nM and the GI50 ([15]; Homo sapiens, five-dose screen) was 1520 nM. For the same molecule, the “GI% (10^−5 M)” value ([15]; one-dose 10 µM) was 64.31%, the “GI% (10^−5 M)” value ([16]; one-dose 10 µM) was 86.97% and the GI50 ([16]; Homo sapiens, five-dose screen) was 2880 nM. For the same molecule, the “GI% (10^−5 M)” value [17] was 1.91%, the “GI% (10^−5 M)” value ([18]; one-dose 10 µM) was 100 ^d,k % and the GI50 ([18]; Homo sapiens, five-dose screen) was 1530 nM. For the same molecule, the “GI% (10^−5 M)” value [19] was 2.3%, the “GI% (10^−5 M)” value ([20]; one-dose 10 µM) was 86.19% and the GI50 ([20]; Homo sapiens, five-dose screen) was 764 nM. For the same molecule, the “GI% (10^−5 M)” value [21] was 3.21%, the “GI% (10^−5 M)” value [22] was 1.76% and the “GI% (10^−5 M)” value [23] was 1.12%. It also gave an IC50 ([24]; MCF7, read-out: GI50 (IC50)) of 9.5 nM, a CC50 ([24]; MCF7, MCF-7, five-dose screen, read-out: LC50 (the source's name)) of over 50 µM and a CC50 ([25]; Homo sapiens, five-dose screen, read-out: LC50 (the source's name)) of 34.5 µM. For the same molecule, the lethality ([25]; one-dose screen 10 μM) was 60%.
